Values joined by “and” are separate entries in the source; they are usually repeats but may differ in a detail not shown here. Equal entries are not always repeated.
How the values were obtained:
[1] = Permeability study, pig ear skin in Franz cell; assay type: in vitro ADME; details: hydroalcoholic solution 63.6 μg/ml or 6.36 μg/ml
Procedure: Skin from pig ears was used as the experimental system to which a hydroalcoholic solution of compound A 6.36×10^−2 mg/ml and 6.36×10^−3 mg/ml was applied, the reference product being a control hydroalcoholic solution (without compound A). For this study 4 different hydroalcoholic solutions were prepared. The first included 6.36 μg/ml of compound A, the second included 63.6 μg/ml, and the third and fourth were control solutions without compound A. All the preparations were tested on the pig ear skin experimental system. Samples were taken in the diffuser compartment at 6 different times (0, 1, 2, 6, 12 and 24 hours). All the samples (recipients) were quantified by HPLC. FIG. 1. Concentration of compound A in the recipient of the Franz cell for a sample with a concentration of 63.6 μg/ml of A. FIG. 2. Concentration of compound A in the recipient of the Franz cell for a sample with a concentration of 6.36 μg/ml of A.

[2] = tested on: Salmonella typhimurium TA98; assay: Ames test without external metabolisation, TA98; assay type: cell-based; details: no metabolic activation; for Colonies per plate: individual plates 1-4, A; for Colonies per plate / Colonies per plate, Mean: 48 hours; for Mutagenic Ind,: relative to H+/B+
Procedure: (§1) The mutagenic activity of compound A was evaluated using the Ames test without external metabolisation. The Ames test is based on the use of bacterial strains to detect mutations in the DNA in vitro using bacterial strains that make it possible to detect types of damage to the genome.
(§2) Bacteria of 4 strains of Salmonella typhimurium that are internationally recommended for this test, TA1535, TA1537, TA98 and TA100, were used. The test was carried out according to highly standardised protocols. […] The test was carried out without external metabolic activation. The plates were incubated at 37° C. and the reverting colonies were counted after 48 hours.

[3] = tested on: Salmonella typhimurium TA100; assay: Ames test without external metabolisation, TA100; assay type: cell-based; details: no metabolic activation; for Colonies per plate: individual plates 1-4, A; for Colonies per plate / Colonies per plate, Mean: 48 hours; for Mutagenic Ind,: relative to H+/B+
Procedure: as §1, §2

[4] = tested on: Salmonella typhimurium TA1535; assay: Ames test without external metabolisation, TA1535; assay type: cell-based; details: no metabolic activation; for Colonies per plate: individual plates 1-4, A; for Colonies per plate / Colonies per plate, Mean: 48 hours; for Mutagenic Ind,: relative to H+/B+
Procedure: as §1, §2

[5] = tested on: Salmonella typhimurium TA1537; assay: Ames test without external metabolisation, TA1537; assay type: cell-based; details: no metabolic activation; for Colonies per plate: individual plates 1-4; for Colonies per plate / Colonies per plate, Mean: 48 hours; for Mutagenic Ind,: relative to H+/B+
Procedure: as §1, §2

[6] = tested on: cell hyperproliferation in hairless rats; assay: Model of desquamation in hairless rats: corneous material extracted; assay type: in vivo; details: for amount of corneous material extracted, total sum of the right and left flanks, Portal No, 1 / amount of corneous material extracted, total sum of the right and left flanks, Portal No, 2 / amount of corneous material extracted, total sum of the right and left flanks, Portal No, 3 / amount of corneous material extracted, total sum of the right and left flanks, Portal No, 4 / amount of corneous material extracted, total sum of the right and left flanks, Portal No, 5 / amount of corneous material extracted, total sum of the right and left flanks, Portal No, 6: day 11
Procedure: The activity of compound A on cell hyperproliferation in hairless rats was evaluated using the model of desquamation in hairless rats described in the publication: Bräutigam, M., Hübner, H., Rach, P., Thieroff-Ekerdi, R. “Effects of Calcipotriol (MC 903) and Calcitriol after Topical Application on the Skin of Hairless Rats”, Skin Pharmacol 1992; 5:87-92.
(§3) To do this Calcitriol was used as the reference product at 0.01% and compound A was used as the test product at 1% and 0.1% (100 μg/cm^2 and 10 μg/cm^2, respectively). A Control Group was included, administered only with the vehicle (absolute ethanol).
The animals were randomly distributed into the following experimental groups:
(§4) The treatments were administered topically, once a day for 10 days (100 μg/side/animal). The animals were weighed on a daily basis throughout the study and the grade of erythema was evaluated (0=Absence of erythema, 1=Low grade erythema, 3=High grade erythema). On the last day of the study, day 11, the amount of corneous material extracted from the epidermis of the animals was evaluated.

[7] = Body weight in the hairless rat study; assay type: in vivo, hairless rats
Procedure: as §3, §4

[8] = Signs of toxicity and deaths in the hairless rat study; assay type: in vivo; details: compound A at 1%, topical
Procedure: A Control Group was included, administered only with the vehicle (absolute ethanol).
as §4

[9] = Compound A 0.1% (10 μg/cm^2) topical once a day for 10 days
[10] = Compound A 1% (100 μg/cm^2) topical once a day for 10 days

SMILES: C=C1C(=O)O[C@H](CCc2ccc(OC)cc2)[C@@H]1C [Compound A]
- amount of compound A dissolved in the recipient ([1]; samples at 0-24 hours, HPLC quantification limit): < 0.01 mg/mL
- transdermal flow through the skin of the pig ear ([1]; up to 24 hours): no transdermal flow
- Colonies per plate ([2]; Comp. A 10 μg/ml): 9 and 6 and 12 and 14
- Colonies per plate, Mean ([2]; Comp. A 10 μg/ml): 10.25
- Mutagenic Ind, ([2]; Comp. A 10 μg/ml): 1.079
- Colonies per plate ([2]; Comp. A 100 μg/ml): 15 and 12 (2×) and 8
- Colonies per plate, Mean ([2]; Comp. A 100 μg/ml): 11.75
- Mutagenic Ind, ([2]; Comp. A 100 μg/ml): 1.237
- Colonies per plate ([2]; Comp. A 1 mg/ml): 8 and 4 and 6 and 17
- Colonies per plate, Mean ([2]; Comp. A 1 mg/ml): 8.75
- Mutagenic Ind, ([2]; Comp. A 1 mg/ml): 0.9211
- Ames test result (mutagenic effects) ([2]; TA98, concentrations evaluated 10 μg/ml to 1 mg/ml): negative
- Colonies per plate ([3]; Comp. A 10 μg/ml): 38 and 41 and 44 and 54
- Colonies per plate, Mean ([3]; Comp. A 10 μg/ml): 44.25
- Mutagenic Ind, ([3]; Comp. A 10 μg/ml): 0.9124
- Colonies per plate ([3]; Comp. A 100 μg/ml): 45 and 35 and 31 and 51
- Colonies per plate, Mean ([3]; Comp. A 100 μg/ml): 40.5
- Mutagenic Ind, ([3]; Comp. A 100 μg/ml): 0.8351
- Colonies per plate ([3]; Comp. A 1 mg/ml): 52 and 37 and 38 and 40
- Colonies per plate, Mean ([3]; Comp. A 1 mg/ml): 44
- Mutagenic Ind, ([3]; Comp. A 1 mg/ml): 0.9072
- Ames test result (mutagenic effects) ([3]; TA100, concentrations evaluated 10 μg/ml to 1 mg/ml): negative
- Colonies per plate ([4]; Comp. A 10 μg/ml): 1 (2×) and 2 and 0
- Colonies per plate, Mean ([4]; Comp. A 10 μg/ml): 1
- Mutagenic Ind, ([4]; Comp. A 10 μg/ml): 0.5
- Colonies per plate ([4]; Comp. A 100 μg/ml): 1 (2×) and 2 and 0
- Colonies per plate, Mean ([4]; Comp. A 100 μg/ml): 1
- Mutagenic Ind, ([4]; Comp. A 100 μg/ml): 0.5
- Colonies per plate ([4]; Comp. A 1 mg/ml): 1 (2×) and 0 and 2
- Colonies per plate, Mean ([4]; Comp. A 1 mg/ml): 1
- Mutagenic Ind, ([4]; Comp. A 1 mg/ml): 0.5
- Ames test result (mutagenic effects) ([4]; TA1535, concentrations evaluated 10 μg/ml to 1 mg/ml): negative
- Colonies per plate ([5]; Comp. A 10 μg/ml, A): 0 (3×) and 1
- Colonies per plate, Mean ([5]; Comp. A 10 μg/ml): 0.25
- Mutagenic Ind, ([5]; Comp. A 10 μg/ml): 0.5
- Colonies per plate ([5]; Comp. A 100 μg/ml, A): 0 (2×) and 1 and 2
- Colonies per plate, Mean ([5]; Comp. A 100 μg/ml): 0.75
- Mutagenic Ind, ([5]; Comp. A 100 μg/ml): 1.5
- Colonies per plate ([5]; Comp. A 1 mg/ml): 0
- Colonies per plate, Mean ([5]; Comp. A 1 mg/ml): 0
- Mutagenic Ind, ([5]; Comp. A 1 mg/ml): 0
- Ames test result (mutagenic effects) ([5]; TA1537, concentrations evaluated 10 μg/ml to 1 mg/ml): negative
- amount of corneous material extracted, total sum of the right and left flanks, Portal No, 1 [6, 9]: 3.1 ± 0.17 mg
- amount of corneous material extracted, total sum of the right and left flanks, Portal No, 2 [6, 9]: 1.7 ± 0.08 mg
- amount of corneous material extracted, total sum of the right and left flanks, Portal No, 3 [6, 9]: 1.1 ± 0.14 mg
- amount of corneous material extracted, total sum of the right and left flanks, Portal No, 4 [6, 9]: 1.1 ± 0.22 mg
- amount of corneous material extracted, total sum of the right and left flanks, Portal No, 5 [6, 9]: 1.1 ± 0.28 mg
- amount of corneous material extracted, total sum of the right and left flanks, Portal No, 6 [6, 9]: 8.1 ± 0.47 mg
- amount of corneous material extracted, total sum of the right and left flanks, Portal No, 1 [6, 10]: 3.1 ± 0.75 mg
- amount of corneous material extracted, total sum of the right and left flanks, Portal No, 2 [6, 10]: 2.7 ± 0.23 mg
- amount of corneous material extracted, total sum of the right and left flanks, Portal No, 3 [6, 10]: 2.0 ± 0.26 mg
- amount of corneous material extracted, total sum of the right and left flanks, Portal No, 4 [6, 10]: 1.4 ± 0.169 mg
- amount of corneous material extracted, total sum of the right and left flanks, Portal No, 5 [6, 10]: 1.4 ± 0.23 mg
- amount of corneous material extracted, total sum of the right and left flanks, Portal No, 6 [6, 10]: 12.6 ± 0.76 mg
- effect on the animals' skin (corneous material extracted) ([6]; compound A at 0.1%, topical): no effect
- amount of corneous material extracted in relation to the control group and compound A at 0.1% ([6]; compound A at 1%, Student Newman Keuls, p<0.01): statistically significant differences
- Body weight ([7]; Compound A 0.1% topical once a day, Baseline): 0.0 ± 0.00 g
- Body weight ([7]; Compound A 0.1% topical once a day, Day 2): 0.0 ± 0.00 g
- Body weight ([7]; Compound A 0.1% topical once a day, Day 3): 0.0 ± 0.00 g
- Body weight ([7]; Compound A 0.1% topical once a day, Day 4): 0.0 ± 0.00 g
- Body weight ([7]; Compound A 0.1% topical once a day, Day 5): 0.0 ± 0.00 g
- Body weight ([7]; Compound A 0.1% topical once a day, Day 6): 0.0 ± 0.00 g
- Body weight ([7]; Compound A 0.1% topical once a day, Day 7): 0.0 ± 0.00 g
- Body weight ([7]; Compound A 0.1% topical once a day, Day 8): 0.0 ± 0.00 g
- Body weight ([7]; Compound A 0.1% topical once a day, Day 9): 0.0 ± 0.00 g
- Body weight ([7]; Compound A 0.1% topical once a day, Day 10): 0.0 ± 0.00 g
- Body weight ([7]; Compound A 0.1% topical once a day, Day 11): 0.0 ± 0.00 g
- Body weight ([7]; Compound A 1% topical once a day, Baseline): 0.0 ± 0.00 g
- Body weight ([7]; Compound A 1% topical once a day, Day 2): 1.0 ± 0.00 g
- Body weight ([7]; Compound A 1% topical once a day, Day 3): 1.0 ± 0.00 g
- Body weight ([7]; Compound A 1% topical once a day, Day 4): 1.2 ± 0.11 g
- Body weight ([7]; Compound A 1% topical once a day, Day 5): 1.3 ± 0.17 g
- Body weight ([7]; Compound A 1% topical once a day, Day 6): 1.5 ± 0.22 g
- Body weight ([7]; Compound A 1% topical once a day, Day 7): 1.5 ± 0.22 g
- Body weight ([7]; Compound A 1% topical once a day, Day 8): 1.2 ± 0.40 g
- Body weight ([7]; Compound A 1% topical once a day, Day 9): 0.9 ± 0.15 g
- Body weight ([7]; Compound A 1% topical once a day, Day 10): 0.9 ± 0.15 g
- Body weight ([7]; Compound A 1% topical once a day, Day 11): 1.2 ± 0.17 g
- signs of toxicity [8]: none of the animals presented signs of toxicity
